Experimental data: PubChem BioAssay AID1918958 (Molecular Pharmacology Branch, DTP, NCI, 2023)

Tested on: NCI-H196 complex spheroid viability
Assay: Anticancer human tumor NCI-H196 cell line growth inhibition [LSD1];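 also: spheroids exposed to agents for 7 days before readout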;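 as to viability, T/C: 100% = DMSO vehicle control viability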
Settings: for IC50: curve of first compound; for viability, T/C: stronger effect = lower value
Method in brief: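 Complex spheroids of tumor cells with HUVEC and human MSCs, exposed to iadademstat combined with other agents. Each agent tested in half-log steps from near clinical Cmax (else 10 microM top), DMSO ≤0.25%.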

CC[C@@]1(O)C(=O)OCc2c1cc1n(c2=O)Cc2cc3c(CN(C)C)c(O)ccc3nc2-1 + NC1CCC(NC2CC2c2ccccc2)CC1
IC50 (second compound 0.1 µM): > 100 nM
IC50 (second compound 0.316 µM): > 100 nM
IC50 (second compound 1 µM): > 100 nM
IC50 (second compound 3.16 µM): > 100 nM
IC50 (second compound 10 µM): > 100 nM
viability, T/C (second compound 0.1 µM, first compound 0.000316 µM): 96.8%
viability, T/C (second compound 0.1 µM, first compound 0.001 µM): 96.4%
viability, T/C (second compound 0.1 µM, first compound 0.00316 µM): 103%
viability, T/C (second compound 0.1 µM, first compound 0.01 µM): 107%
viability, T/C (second compound 0.1 µM, first compound 0.0316 µM): 115%
viability, T/C (second compound 0.1 µM, first compound 0.1 µM): 94.1%
viability, T/C (second compound 0.316 µM, first compound 0.000316 µM): 96%
viability, T/C (second compound 0.316 µM, first compound 0.001 µM): 90.2%
viability, T/C (second compound 0.316 µM, first compound 0.00316 µM): 105%
viability, T/C (second compound 0.316 µM, first compound 0.01 µM): 118%
viability, T/C (second compound 0.316 µM, first compound 0.0316 µM): 110%
viability, T/C (second compound 0.316 µM, first compound 0.1 µM): 101%
viability, T/C (second compound 1 µM, first compound 0.000316 µM): 89.7%
viability, T/C (second compound 1 µM, first compound 0.001 µM): 105%
viability, T/C (second compound 1 µM, first compound 0.00316 µM): 98.6%
viability, T/C (second compound 1 µM, first compound 0.01 µM): 101%
viability, T/C (second compound 1 µM, first compound 0.0316 µM): 98.4%
viability, T/C (second compound 1 µM, first compound 0.1 µM): 93.7%
viability, T/C (second compound 3.16 µM, first compound 0.000316 µM): 88.7%
viability, T/C (second compound 3.16 µM, first compound 0.001 µM): 95.3%
viability, T/C (second compound 3.16 µM, first compound 0.00316 µM): 91%
viability, T/C (second compound 3.16 µM, first compound 0.01 µM): 100%
viability, T/C (second compound 3.16 µM, first compound 0.0316 µM): 111%
viability, T/C (second compound 3.16 µM, first compound 0.1 µM): 102%
viability, T/C (second compound 10 µM, first compound 0.000316 µM): 94.6%
viability, T/C (second compound 10 µM, first compound 0.001 µM): 89.7%
viability, T/C (second compound 10 µM, first compound 0.00316 µM): 98%
viability, T/C (second compound 10 µM, first compound 0.01 µM): 109%
viability, T/C (second compound 10 µM, first compound 0.0316 µM): 105%
viability, T/C (second compound 10 µM, first compound 0.1 µM): 95.3%

NS(=O)(=O)OCC1CC(n2ccc3c(NC4CCc5ccccc54)ncnc32)CC1O (stereo not given) + NC1CCC(NC2CC2c2ccccc2)CC1
IC50 (second compound 0.1 µM): > 3000 nM
IC50 (second compound 0.316 µM): > 3000 nM
IC50 (second compound 1 µM): > 3000 nM
IC50 (second compound 3.16 µM): > 3000 nM
IC50 (second compound 10 µM): > 3000 nM
viability, T/C (second compound 0.1 µM, first compound 0.00949 µM): 109%
viability, T/C (second compound 0.1 µM, first compound 0.03 µM): 103%
viability, T/C (second compound 0.1 µM, first compound 0.0949 µM): 79.6%
viability, T/C (second compound 0.1 µM, first compound 0.3 µM): 89.3%
viability, T/C (second compound 0.1 µM, first compound 0.949 µM): 84.7%
viability, T/C (second compound 0.1 µM, first compound 3 µM): 71.4%
viability, T/C (second compound 0.316 µM, first compound 0.00949 µM): 108%
viability, T/C (second compound 0.316 µM, first compound 0.03 µM): 104%
viability, T/C (second compound 0.316 µM, first compound 0.0949 µM): 79.2%
viability, T/C (second compound 0.316 µM, first compound 0.3 µM): 78%
viability, T/C (second compound 0.316 µM, first compound 0.949 µM): 78.6%
viability, T/C (second compound 0.316 µM, first compound 3 µM): 72.7%
viability, T/C (second compound 1 µM, first compound 0.00949 µM): 103%
viability, T/C (second compound 1 µM, first compound 0.03 µM): 101%
viability, T/C (second compound 1 µM, first compound 0.0949 µM): 76.2%
viability, T/C (second compound 1 µM, first compound 0.3 µM): 81.8%
viability, T/C (second compound 1 µM, first compound 0.949 µM): 82.7%
viability, T/C (second compound 1 µM, first compound 3 µM): 77.6%
viability, T/C (second compound 3.16 µM, first compound 0.00949 µM): 92.5%
viability, T/C (second compound 3.16 µM, first compound 0.03 µM): 109%
viability, T/C (second compound 3.16 µM, first compound 0.0949 µM): 77.7%
viability, T/C (second compound 3.16 µM, first compound 0.3 µM): 80.5%
viability, T/C (second compound 3.16 µM, first compound 0.949 µM): 76.9%
viability, T/C (second compound 3.16 µM, first compound 3 µM): 71.6%
viability, T/C (second compound 10 µM, first compound 0.00949 µM): 102%
viability, T/C (second compound 10 µM, first compound 0.03 µM): 95.4%
viability, T/C (second compound 10 µM, first compound 0.0949 µM): 73.6%
viability, T/C (second compound 10 µM, first compound 0.3 µM): 83.6%
viability, T/C (second compound 10 µM, first compound 0.949 µM): 78.3%
viability, T/C (second compound 10 µM, first compound 3 µM): 64.7%
